This note sets out measurements from EP0411334B1, “Antiherpes pentapeptide derivatives having a substituted aspartic acid side chain” (BIO-MEGA/BOEHRINGER INGELHEIM RESEARCH INC., priority 1989, dated 1991).

Where a SMILES comes first, the peptide text is derived from it. [ ]: non-standard residue; d: D form. The star is where a group is joined. Dihydrocaffeoyl = O=C(CCc1ccc(O)c(O)c1)*; Benzoyl(2-Ph) = O=C(c1ccccc1-c1ccccc1)*; Desaminotyrosyl = O=C(CCc1ccc(O)cc1)*; Hydrocinnamoyl = O=C(CCc1ccccc1)*; N(Me)CH2CH2Ph = CN(CCc1ccccc1)*; Pentanoyl(4-Me) = CC(C)CCC(=O)*; O(2S-octyl) = CCCCCC[C@H](C)O*; NHPhenethyl = c1ccc(CCN*)cc1; NMeV = CN[C@H](C(=O)O)C(C)C; Morpholide = C1CN(*)CCO1; Pyrrolidide = C1CCN(*)C1; NiPr2 = CC(C)N(C(C)C)*; X1 = CCCCCC[C@@H](C)O*; X3 = c1ccc(CCCO*)cc1; X8 = CN(CCc1ccccn1)*; Bz = O=C(c1ccccc1)*; NHPh = c1ccc(N*)cc1; N(Me)OMe = CON(C)*; NEt2 = CCN(CC)*

The target of this test is HSV-1 ribonucleotide reductase (Human herpesvirus 1, UniProt P08543). Put plainly: biochemical.
HSV-1 ribonucleotide reductase, sequence (P08543 whole entry): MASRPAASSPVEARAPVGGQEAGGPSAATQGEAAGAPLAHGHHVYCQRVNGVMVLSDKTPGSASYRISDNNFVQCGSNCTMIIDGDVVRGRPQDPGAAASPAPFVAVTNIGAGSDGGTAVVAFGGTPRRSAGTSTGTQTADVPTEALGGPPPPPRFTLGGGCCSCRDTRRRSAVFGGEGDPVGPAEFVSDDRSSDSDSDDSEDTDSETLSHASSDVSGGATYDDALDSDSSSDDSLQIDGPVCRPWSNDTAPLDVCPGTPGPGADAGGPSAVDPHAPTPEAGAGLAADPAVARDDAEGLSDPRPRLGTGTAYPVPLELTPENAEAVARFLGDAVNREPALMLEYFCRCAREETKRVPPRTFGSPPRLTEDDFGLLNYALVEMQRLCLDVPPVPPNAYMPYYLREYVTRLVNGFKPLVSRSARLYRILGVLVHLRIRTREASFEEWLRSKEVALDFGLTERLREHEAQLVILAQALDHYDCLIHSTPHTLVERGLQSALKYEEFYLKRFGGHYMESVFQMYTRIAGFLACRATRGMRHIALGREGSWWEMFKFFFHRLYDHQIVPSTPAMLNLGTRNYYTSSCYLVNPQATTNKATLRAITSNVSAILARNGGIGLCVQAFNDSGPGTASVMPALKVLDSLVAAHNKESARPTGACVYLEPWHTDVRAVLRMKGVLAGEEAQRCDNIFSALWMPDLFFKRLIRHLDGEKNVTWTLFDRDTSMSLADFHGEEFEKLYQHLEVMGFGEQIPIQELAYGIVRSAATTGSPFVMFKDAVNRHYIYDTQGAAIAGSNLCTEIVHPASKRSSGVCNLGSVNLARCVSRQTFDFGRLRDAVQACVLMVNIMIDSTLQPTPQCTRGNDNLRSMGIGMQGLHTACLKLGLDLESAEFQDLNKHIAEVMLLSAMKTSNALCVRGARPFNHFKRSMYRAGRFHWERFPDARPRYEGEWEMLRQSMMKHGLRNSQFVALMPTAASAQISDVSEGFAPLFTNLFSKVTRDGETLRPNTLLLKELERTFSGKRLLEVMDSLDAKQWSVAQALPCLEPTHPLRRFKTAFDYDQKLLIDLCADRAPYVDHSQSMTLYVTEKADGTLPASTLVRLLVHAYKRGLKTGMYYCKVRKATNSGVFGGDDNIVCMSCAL
From the text: Inhibition of Herpes Simplex Virus (HSV, type 1) Ribonucleotide Reductase
• a) Preparation of Enzyme HSV-1 ribonucleotide reductase (partially purified) was obtained from quiescent BHK-21/C13 cells infected with strain F HSV-1 virus at 10 plaque forming units/cell as described by E.A. Cohen et al., J. Gen. […] The number of units of the enzyme preparation used in each assay was constant, based on the specific activity of the enzyme preparation.
`CC[C@H](C)[C@H](NC(=O)[C@@H](NC(=O)c1ccccc1-c1ccccc1)C(C)C)C(=O)N[C@@H](CC(=O)NCCc1ccccc1)C(=O)N[C@@H](CC(=O)O)C(=O)N[C@@H](CC(C)C)C(=O)O` [Entry 21, 2-Biphenylylcarbonyl-Val-Ile-Asp-(NHCH₂CH₂Ph)-Asp-Leu-OH] ({Benzoyl(2-Ph)}-VID(NHPhenethyl)DL-OH): the IC50 was found to be 1250 nM.

Take `CC[C@H](C)[C@H](NC(=O)[C@H](C(C)C)N(C)C(=O)CCc1ccc(O)c(O)c1)C(=O)N[C@@H](CC(=O)N1CCCC1)C(=O)N[C@@H](CC(=O)O)C(=O)N[C@@H](CC(C)C)C(=O)O` [Entry 28, (3,4-Dihydroxy-Ph)-CH₂CH₂CO-N-Me-Val-Ile-Asp(pyrrolidino)-Asp-Leu-OH] (Dihydrocaffeoyl-[NMeV]ID(Pyrrolidide)DL-OH): the IC50 came out at 250 nM.

`CC[C@H](C)[C@H](NC(=O)[C@H](C(C)C)N(C)C(=O)CCc1ccccc1)C(=O)N[C@@H](CC(=O)N(C(C)C)C(C)C)C(=O)N[C@@H](CC(=O)O)C(=O)N[C@@H](CC(C)C)C(=O)O` [Entry 5] (Hydrocinnamoyl-[NMeV]ID(NiPr2)DL-OH): inhibition was half-maximal at 250 nM (IC50).

`CC[C@H](C)[C@H](NC(=O)[C@H](C(C)C)N(C)C(=O)CCC(C)C)C(=O)N[C@@H](CC(=O)N(CC)CC)C(=O)N[C@@H](CC(=O)O)C(=O)N[C@@H](CC(C)C)C(=O)O` [Entry 25, 4-Methylpentanoyl-N-Me-Val-Ile-Asp(NEt₂)-Asp-Leu-OH] ({Pentanoyl(4-Me)}-[NMeV]ID(NEt2)DL-OH) had an IC50 of 500 nM.

In turn, `CC[C@H](C)[C@H](NC(=O)[C@H](C(C)C)N(C)C(=O)CCc1ccccc1)C(=O)N[C@@H](CC(=O)N(CC)CC)C(=O)N[C@@H](CC(=O)O)C(=O)N[C@@H](CC(C)C)C(=O)O` [Entry 4] (Hydrocinnamoyl-[NMeV]ID(NEt2)DL-OH) came in with an IC50 of 260 nM.

In turn, `CC[C@H](C)[C@H](NC(=O)[C@@H](NC(=O)c1ccccc1)C(C)C)C(=O)N[C@@H](CC(=O)NCCc1ccccc1)C(=O)N[C@@H](CC(=O)O)C(=O)N[C@@H](CC(C)C)C(=O)O` [Entry 22, Benzoyl-Val-Ile-Asp-(NHCH₂CH₂Ph)-Asp-Leu-OH] (Bz-VID(NHPhenethyl)DL-OH) had an IC50 of 7600 nM.

Regarding `CC[C@H](C)[C@H](NC(=O)[C@H](C(C)C)N(C)C(=O)CCc1ccc(O)cc1)C(=O)N[C@@H](CC(=O)OCCCc1ccccc1)C(=O)N[C@@H](CC(=O)O)C(=O)N[C@@H](CC(C)C)C(=O)O` [Entry 9] (Desaminotyrosyl-[NMeV]ID(X3)DL-OH), the IC50 stood at 650 nM.

In turn, `CC[C@H](C)[C@H](NC(=O)[C@H](C(C)C)N(C)C(=O)CCc1ccc(O)cc1)C(=O)N[C@@H](CC(=O)N(C)CCc1ccccn1)C(=O)N[C@@H](CC(=O)O)C(=O)N[C@@H](CC(C)C)C(=O)O` [Entry 15] (Desaminotyrosyl-[NMeV]ID(X8)DL-OH) showed an IC50 of 290 nM.

On to `CC[C@H](C)[C@H](NC(=O)[C@@H](NC(=O)CCc1ccc(O)cc1)C(C)C)C(=O)N[C@@H](CC(=O)NCCc1ccccc1)C(=O)N[C@@H](CC(=O)O)C(=O)N[C@@H](CC(C)C)C(=O)O` [Entry 17] (Desaminotyrosyl-VID(NHPhenethyl)DL-OH), for which the IC50 amounted to 1700 nM.

Take `CC[C@H](C)[C@H](NC(=O)[C@H](C(C)C)N(C)C(=O)CCc1ccc(O)cc1)C(=O)N[C@@H](CC(=O)Nc1ccccc1)C(=O)N[C@@H](CC(=O)O)C(=O)N[C@@H](CC(C)C)C(=O)O` [Entry 10] (Desaminotyrosyl-[NMeV]ID(NHPh)DL-OH): the IC50 was found to be 1600 nM.

`CC[C@H](C)[C@H](NC(=O)[C@H](C(C)C)N(C)C(=O)CCc1ccc(O)cc1)C(=O)N[C@@H](CC(=O)N(CC)CC)C(=O)N[C@@H](CC(=O)O)C(=O)N[C@@H](CC(C)C)C(=O)O` [Entry 13, DAT-N-Me-Val-Ile-Asp(NEt₂)-Asp-Leu-OH] (Desaminotyrosyl-[NMeV]ID(NEt2)DL-OH) registered an IC50 of 270 nM.

Molecule `CCCCCC[C@@H](C)OC(=O)C[C@H](NC(=O)[C@@H](NC(=O)[C@H](C(C)C)N(C)C(=O)CCc1ccccc1)[C@@H](C)CC)C(=O)N[C@@H](CC(=O)O)C(=O)N[C@@H](CC(C)C)C(=O)O` [Entry 2] (Hydrocinnamoyl-[NMeV]ID(X1)DL-OH) yielded an IC50 of 700 nM.

`CC[C@H](C)[C@H](NC(=O)[C@H](C(C)C)N(C)C(=O)CCc1ccccc1)C(=O)N[C@@H](CC(=O)N1CCOCC1)C(=O)N[C@@H](CC(=O)O)C(=O)N[C@@H](CC(C)C)C(=O)O` [Entry 7] (Hydrocinnamoyl-[NMeV]ID(Morpholide)DL-OH) came in with an IC50 of 180 nM.

Take `CC[C@H](C)[C@H](NC(=O)[C@H](C(C)C)N(C)C(=O)CCc1ccccc1)C(=O)N[C@@H](CC(=O)N1CCCC1)C(=O)N[C@@H](CC(=O)O)C(=O)N[C@@H](CC(C)C)C(=O)O` [Entry 6] (Hydrocinnamoyl-[NMeV]ID(Pyrrolidide)DL-OH): it took 110 nM to reach half-maximal inhibition (IC50).

In turn, `CC[C@H](C)[C@H](NC(=O)[C@H](C(C)C)N(C)C(=O)CCc1ccccc1)C(=O)N[C@@H](CC(=O)N(C)C)C(=O)N[C@@H](CC(=O)O)C(=O)N[C@@H](CC(C)C)C(=O)O` [Entry 3] (Hydrocinnamoyl-[NMeV]ID(NMe2)DL-OH) returned an IC50 of 190 nM.

Molecule `CC[C@H](C)[C@H](NC(=O)[C@H](C(C)C)N(C)C(=O)CCc1ccc(O)cc1)C(=O)N[C@@H](CC(=O)N(C)CCc1ccccc1)C(=O)N[C@@H](CC(=O)O)C(=O)N[C@@H](CC(C)C)C(=O)O` [Entry 14] (Desaminotyrosyl-[NMeV]ID(N(Me)CH2CH2Ph)DL-OH) registered an IC50 of 380 nM.

In the case of `CCNC(=O)C[C@H](NC(=O)[C@@H](NC(=O)[C@@H](NC(=O)CCc1ccc(O)cc1)C(C)C)[C@@H](C)CC)C(=O)N[C@@H](CC(=O)O)C(=O)N[C@@H](CC(C)C)C(=O)O` [Entry 18] (Desaminotyrosyl-VID(NHEt)DL-OH), half-maximal inhibition (IC50) was put at 1750 nM.

`CCN(CC)C(=O)C[C@H](NC(=O)[C@@H](NC(=O)[C@H](C(C)C)N(C)C(=O)CCc1ccccc1)[C@@H](C)O)C(=O)N[C@@H](CC(=O)O)C(=O)N[C@@H](CC(C)C)C(=O)O` [Entry 26, PhCH₂CH₂CO-N-Me-Val-Thr-Asp(NEt₂)-Asp-Leu-OH] (Hydrocinnamoyl-[NMeV]TD(NEt2)DL-OH) registered an IC50 of 300 nM.

`CC[C@H](C)[C@H](NC(=O)[C@@H](NC(=O)CCc1ccc(O)cc1)C(C)C)C(=O)N[C@@H](CC(=O)N(C)CCc1ccccc1)C(=O)N[C@@H](CC(=O)O)C(=O)N[C@@H](CC(C)C)C(=O)O` [Entry 20] (Desaminotyrosyl-VID(N(Me)CH2CH2Ph)DL-OH) came in with an IC50 of 550 nM.

Turning to `CC[C@H](C)[C@H](NC(=O)[C@H](C(C)C)N(C)C(=O)CCc1ccccc1)C(=O)N[C@@H](CC(=O)N(C)OC)C(=O)N[C@@H](CC(=O)O)C(=O)N[C@@H](CC(C)C)C(=O)O` [Entry 8] (Hydrocinnamoyl-[NMeV]ID(N(Me)OMe)DL-OH), half-maximal inhibition (IC50) required 190 nM.

In turn, `CC[C@H](C)[C@H](NC(=O)[C@@H](NC(=O)CCc1ccc(O)cc1)C(C)C)C(=O)N[C@@H](CC(=O)N(CC)CC)C(=O)N[C@@H](CC(=O)O)C(=O)N[C@@H](CC(C)C)C(=O)O` [Entry 19] (Desaminotyrosyl-VID(NEt2)DL-OH) showed an IC50 of 560 nM.

Take `CC[C@H](C)[C@H](NC(=O)[C@H](C(C)C)N(C)C(=O)CCc1ccccc1)C(=O)N[C@@H](CC(=O)N1CCOCC1)C(=O)N[C@@H](CC(=O)O)C(=O)N[C@@H](CC(C)C)C(=O)N(CC)CC` [Entry 27, PhCH₂CH₂CO-N-Me-Val-Ile-Asp(morpholino)-Asp-Leu-NEt₂] (Hydrocinnamoyl-[NMeV]ID(Morpholide)DL-NEt2): the IC50 was determined as 2600 nM.

Take `CC[C@H](C)[C@H](NC(=O)[C@@H](NC(C)=O)C(C)C)C(=O)N[C@@H](CC(=O)NCCc1ccccc1)C(=O)N[C@@H](CC(=O)O)C(=O)N[C@@H](CC(C)C)C(=O)O` [Entry 23, Ac-Val-Ile-Asp(NHCH₂CH₂Ph)-Asp-Leu-OH] (Ac-VID(NHPhenethyl)DL-OH): inhibition was half-maximal at 18000 nM (IC50).

Take `CCCCCC[C@H](C)OC(=O)C[C@H](NC(=O)[C@@H](NC(=O)[C@H](C(C)C)N(C)C(=O)CCc1ccccc1)[C@@H](C)CC)C(=O)N[C@@H](CC(=O)O)C(=O)N[C@@H](CC(C)C)C(=O)O` [Entry 1] (Hydrocinnamoyl-[NMeV]ID(O(2S-octyl))DL-OH): the midpoint of inhibition, the IC50, lay at 700 nM.

Molecule `CC[C@H](C)[C@H](NC(=O)[C@H](C(C)C)N(C)C(=O)CCc1ccc(O)cc1)C(=O)N[C@@H](CC(=O)N(C)C)C(=O)N[C@@H](CC(=O)O)C(=O)N[C@@H](CC(C)C)C(=O)O` [Entry 12] (Desaminotyrosyl-[NMeV]ID(NMe2)DL-OH) showed an IC50 of 90 nM.

As for `CC[C@H](C)[C@H](NC(=O)[C@H](C(C)C)N(C)C(=O)CCc1ccc(O)cc1)C(=O)N[C@@H](CC(=O)NCCc1ccccc1)C(=O)N[C@@H](CC(=O)O)C(=O)N[C@@H](CC(C)C)C(=O)O` [Entry 11] (Desaminotyrosyl-[NMeV]ID(NHPhenethyl)DL-OH), the IC50 was 510 nM.

Regarding `CC[C@H](C)[C@H](NC(=O)[C@H](C(C)C)N(C)C(=O)CCc1ccc(O)cc1)C(=O)N[C@@H](CC(=O)N1CCOCC1)C(=O)N[C@@H](CC(=O)O)C(=O)N[C@@H](CC(C)C)C(=O)O` [Entry 16] (Desaminotyrosyl-[NMeV]ID(Morpholide)DL-OH), the IC50 was 370 nM.
